# “Also recorded” adds a separate entry of the source.
# Key:
# pDCs = assay: Stimulation of pDCs isolated from bone marrow, cytokine ELISA; assay type: cell-based, mouse; conditions: 24 hr
# Source text: Mice and Bone Marrow Cells: C57BL/6 mice were obtained from The Jackson Laboratories and maintained in specific pathogen-free conditions in conventional animal facilities at MedImmune, Inc. TLR9 deficient and MyD88 deficient mice and their litter mate controls were maintained in animal facility of University of Massachusetts Medical School. RAGE deficient mice generated were obtained from Heidelburg Germany and maintained at the University of Massachusetts Medical School. Fresh bone marrow cells were collected and pDCs were isolated from bone marrow cells using miltenyibiotec's plasmacytoid dendritic cell isolation kit. pDCs were re-suspended in Opti-MEM (Invitrogen) and stimulated […] cell/well for 24 hr and cytokine level in the supernatant was measured by ELISA.
# CpG A DNA = assay: Tryptophan emission for CpG-A binding to HMGB1; conditions: intrinsic tryptophan fluorescence; read-out: apparent Kd for CpG A DNA
# Experimental: Tryptophan emission for CpG-A binding to HMGB1: Fluorescence titrations and spectra of HMGB-1 were carried out at 25° C. with a SPEX Fluoromax-3 spectrofluorimeter, monitoring the HMGB-1 intrinsic tryptophan emission at 347 nm (8 nm bandwidth) with 280 nm excitation (3 nm bandwidth) in a masked capped dual-pathlength (0.2×1.0 cm) quartz cell (Hellma Cells, Inc., Jamaica, N.Y.) upon stepwise addition of CpG-A (0.5 mM) to a 1.7 μM solution of HMGB-1 in 1:10 Dulbecco Phosphate Buffered Saline (PBS) solution (Invitrogen, Carlsbad, Calif.). Complex formation between HMGB-1 and the nucleic acid was monitored by the change in the initial fluorescence of the protein. HMGB-1 fractional saturation was inferred from the ratio of observed fluorescence change to maximal change (at saturation), Flim, for each of the nucleic acid additions. Binding affinity was calculated from graphs of relative fluorescence intensity versus [nucleic acid base]/[protein].The occluded binding site size (n) was derived from the intersection of the extrapolated initial slope with the limiting fluorescence plateau in the equilibrium binding isotherms. The measurements for assessment of Tryptophan emission are reviewed in detail in Lakowicz, 2000, Photochem. Photobiol. 72, 421-437.
# mouse macrophages = assay: TNF-a induction in mouse macrophages; assay type: cell-based
# Experimental: TNF-a Induction: To examine mRNA levels macrophages were derived from mouse bone marrow using M-CSF. Macrophages were then stimulated by LPS, E. coli produced recombinant HMGB1 or HMGB1 purified from bovine thymus for indicated length of time and mRNA is measured by Taqman. To examine protein levels thioglycant activated mouse peritoneal macrophages were stimulated with 10 μg/mL of HMGB1 purified from bovine thymus or recombinant HMGB1 generated from E. coli for 24 hr. Cytokines in the supernatant were measured by ELISA.
# [1] = test system: native activated HMG1 stimulated IL-6 release from human PBMCs; assay: Inhibition of cytokine release from PBMCs, native activated HMG1; assay type: cell-based
# Experimental: Inhibition of Cytokine Release: Human peripheral blood mononuclear cells (PBMCs) were isolated from the peripheral blood of healthy volunteers by a density gradient centrifugation. Freshly drawn heparinized whole blood was mixed with two volume of PBS. The diluted blood was gently layered on the surface of Histopaque-1077 (Sigma-Aldrich) and centrifuged at 400×g, at RT for 30 minute. PBMCs were collected from the interface between the plasma and the density gradient solution. After washing in PBS 3×, the purified PBMCs were resuspended in RPMI-1640 medium (GIBCO BRL) containing 100 U/ml penicillin, 100 μg/ml streptomycin and […] β-mercaptoethanol. 1×10^5 of cells was added in each well of 96-well cell culture plates. […]
# The culture media were analyzed for inflammatory cytokines using Beadlyte human multi-cytokine flex kit from Upstate by Luminex 100 (Luminex Corp.). Proinflammatory cytokines TNF-α, IL-6, IL-1β and IL-12 (p40) were measured for cells stimulated with recombinant HMG1. In addition, TNF-α, IL-6, IL-1β and IL-8 were measured for cells stimulated with native activated HMG1.
# Cytokine release data is presented as mean of triplicates±standard deviations. […] It was calculated by PRISM program.
# [2] = test system: CpG2216+thymus HMG1 induced IFN-a release (TLR9 signaling); assay: Inhibition of HMG1 mediated enhancement of TLR9 signaling, CpG2216 + thymus HMG1 in bone marrow cells; assay type: cell-based; conditions: mouse bone marrow cells
# Experimental: HMGB1+TLR Ligand: Freshly isolated bone marrow cells were stimulated with TLR ligands (TLR3:PolyIC@5 μg/mL; TLR4:LPS@2.5 ng/mL; TLR5:flagellin@0.25 μg/mL; TLR7:polyU@4 μg/mL or R837@5 μg/mL; TLR9:CpG2216@1 μM) with or without presence of thymus HMGB1 (10 μg/mL) for 24 hr. Cytokines in the supernatant were measured by ELISA.
# Inhibition of HMG1 Mediated Enhancement of TLR Signaling: Freshly isolated bone marrow cells were stimulated with TLR9 ligand CpG2216 (0.3 μM) and thymus HMGB1 (10 μg/mL) in the presence of different concentration of the anti-HMGB1 mAb E11 or control human IgG for 24 hr and IFN-a in the supernatant was measured by ELISA. CpG2216, HMGB1 and nonstimulatory DNA were used alone or in combination as controls for the assay.
# [3] = test system: LPS+HMG1 induced TNF-a release (TLR4 signaling); assay: Inhibition of HMG1 mediated enhancement of TLR4 signaling, LPS+HMG1 TNF-a release; assay type: cell-based, mouse
# AM14 B cells [4] = assay: DNA immune complex and AM14 cell binding assay; assay type: cell-based, mouse
# Experimental: DNA immune complex and AM14 cell binding assay DNA immune complexes were preformed by mixing spent culture supernatants with 15 μg/ml of PL2-3 (anti-nucleosome IgG2a). AM14 FcγRIIB−/− cells were incubated with a mixture of spent culture supernatants (CML sup.) and 15 μg/ml of PL2-3 (anti-nucleosome IgG2a) on ice. To analyze the effect of RAGE-Fc on the ability of the complexes to bind AM14 B cells, RAGE-Fc (or Fc control) was added to the immune complexes for an additional 2 h on ice. The chromatin immune complexes, or antibody alone, were added to 0.5×10^6 splenic purified AM14 FcγRIIB−/− B. HMGB1 in complexes was detected using an anti-HMGB1-Biotinylated antibody (MedImmune, Inc.) and PL2-3 was detected by an anti-IgG2a-FITC.
# AM14 B cells [5] = assay: AM14 proliferation assay; assay type: cell-based, mouse
# Experimental: AM14 proliferation assay: Purified AM14 B cells were preincubated with RAGE-Fc or control human IgG1 for 30 min at 37° C., and stimulated with 0.1 μg/ml of PL2-3 for 24 h at 37° C. Cells were then pulsed with [^3H]thymidine for 6 h.
# [6] = test system: lupus plasma induced IFIT1 mRNA in human PBMCs; assay: IFIT1 mRNA induction in PBMCs by lupus plasma; assay type: cell-based; conditions: 20% lupus plasma
# Experimental: Human Cell Culture and Isolation: Fresh PBMCs from healthy donors were prepared by Ficoll-hypaque fractionation and cultured at a density of 2×10^5Cells/0.1 ml in 96-well flat-bottomed plates in culture medium. 20% of lupus plasma was incubated with PBMC for 24 hrs. Some wells included antibodies anti-HMGB1, RAGE Fc or human IgG together with lupus plasma. After 24 hrs, PBMCs were collected and lysed. Total RNA was purified using the 96-well Total RNA Purification Kit (Gentra, Minneapolis, Minn.). 11 μl of this RNA was reverse-transcribed to cDNA in a 20 μl reaction using SuperScript III RNase H-Reverse Transcriptase (Invitrogen, Carlsbad, Calif.). cDNA obtained from each sample was diluted 1:[…] was amplified in a 25 μl real-time PCR reaction using 0.4 μM of sense and antisense primers and the 2×iQ SYBR Green Supermix (Bio-Rad, Hercules, Calif.). GAPDH was used as a housekeeping gene control. Primer sequences for IFIG and GAPDH were: IFIT1 forward, 5′-[…]-3′ (SEQ ID NO: 111); IFIT1 reverse, 5′-AGTCAGCAGCCAGTCTCAG-3′ (SEQ ID NO: 112); GAPDH forward, 5′-CAACGGATTTGGTCGTATT-3′ (SEQ ID NO: 113); GAPDH reverse, 5′-[…]-3′ (SEQ ID NO: 114).
substance,measurement,setting,value
5′-GGGGGACGATCGTCGGGGGG-3′ [CpG DNA],IFN-α production,pDCs,32 ± 5 pg/mL
same,TNF-α production,pDCs,43 ± 5 pg/mL
HMGB1: HMGB1 purified from bovine thymus,Kd,CpG A DNA,70 nM
same,IFN-α production,pDCs,ineffective
same,induction of TNF-a mRNA levels,"mouse macrophages; 2 hours, listed as native HMG1",~30 fold
same,induction of TNF-a mRNA levels,"mouse macrophages; 2 hours, listed as thymus HMG1",roughly 30 fold
same,induction of TNF-a mRNA levels,mouse macrophages; 8 hour,~15 fold
same,increase in TNF-a protein levels,"mouse macrophages; 24 hours, supernatant",no induction
"RAGE-Fc: RAGE-Fc fusion protein (soluble RAGE), RAGE antagonist",block of IL-6 release induced by native activated HMG1,[1],able to block IL-6 released induced by native activated HMG1
same,inhibition of IFN-a release induced by CpG + thymus HMG1,[2],inhibit IFN-a release
same,inhibition of IFN-a release induced by CpG + thymus HMG1,[2]; listed as RAGE/Fc,significantly blocked CpG/HMGB1 complex induced IFN-α
same,inhibition of IFN-a release induced by CpG alone,[2]; listed as RAGE/Fc,did not block CpG-A induced IFN-α production
same,inhibition of IFN-a release induced by CpG + thymus HMG1,[2]; listed as Rage/Fc,to a less extent; also recorded: inhibited the release of INF-a induced by CpG2216+thymus HMG1
same,inhibition of IFN-a release induced by CpG alone,[2]; listed as Rage/Fc,"Neither E11, G4 or Rage/Fc inhibited"
same,inhibition of TNF-a release induced by LPS+HMG1,[3],inhibits the release of TNF-a induced by LPS+HMG1; also recorded: could be blocked; also recorded: inhibit the release of TNFa induced by LPS+HMG1
same,inhibition of binding of chromatin/DNA immune complexes to AM14 B cells,AM14 B cells [4],blocks binding of chromatin IC to AM14 B cells; also recorded: inhibited binding of HMGB1-containing DNA immune complexes to the surface of B cells
same,"effect on TLR2, TLR4 ligand induced proliferation or BCR mediated B cell activation",AM14 B cells [5],had no effect
same,inhibition of DNA immune complex (PL2-3) dependent proliferation of AM14 B cells,AM14 B cells [5]; thymidine incorporation,reduced proliferation; also recorded: markedly inhibited PL2-3-dependent proliferation of AM14 B cells
same,inhibition of induction of IFIT1 mRNA by lupus plasma,[6],approx 75%
"lipopolysaccharide [LPS, reference compound]",induction of TNF-a mRNA levels,mouse macrophages; 2 hours,~66 fold
same,induction of TNF-a mRNA levels,mouse macrophages; 8 hour,~7 fold

# — US20080311122A1, “Antagonists of Hmgb1 and/or Rage and Methods of Use Thereof” (Medimmune, LLC, priority 2005, published 2008)
